The text below walks through data of ChEMBL document CHEMBL3352609, “Synthesis of new 1-(4-methane(amino)sulfonylphenyl)-5-(4-substituted-aminomethylphenyl)-3-trifluoromethyl-1H-pyrazoles: a search for novel nitric oxide donor anti-inflammatory agents” (2014).

Common to all, as to format: functional
The subject of experiment [1] is Rattus norvegicus. The experiment is described as follows: Anti-inflammatory activity in carrageenan-induced rat foot paw edema model assessed as reduction in paw volume at 20 mg/kg dosed 30 mins before carrageenan injection and measured 3 hrs after carrageenan challenge. Background: Carrageenan injected into the paw causes an acute inflammation.
Experiment [2] has as its system Rattus norvegicus. The experiment is described as follows: Anti-inflammatory activity in carrageenan-induced rat foot paw edema model assessed as reduction in paw volume at 20 mg/kg dosed 30 mins before carrageenan injection and measured 5 hrs after carrageenan challenge.
The subject of experiment [3] is Rattus norvegicus. The experiment is described as follows: Anti-inflammatory activity in carrageenan-induced rat foot paw edema model assessed as reduction in paw volume at 20 mg/kg dosed 30 mins before carrageenan injection and measured 1 hr after carrageenan challenge.

With `NS(=O)(=O)c1ccc(-n2nc(C(F)(F)F)cc2-c2ccc(CN3CCNCC3)cc2)cc1`, the inhibition in vivo (usually the drop in the measured response relative to a control, in per cent) at 20 mg/kg came to 70% in experiment [1], 35% in experiment [2] and 58% in experiment [3].

As to `CNCc1ccc(-c2cc(C(F)(F)F)nn2-c2ccc(S(C)(=O)=O)cc2)cc1`, the values for the inhibition in vivo at 20 mg/kg in experiment [1], in experiment [2] and in experiment [3] were 89%, 67% and 72%, respectively.

Consider `Cc1ccc(-c2cc(C(F)(F)F)nn2-c2ccc(S(N)(=O)=O)cc2)cc1` [CELECOXIB], for which the inhibition in vivo at 20 mg/kg in experiment [1] came out at 80%; in experiment [2] it was 48%; in experiment [3] it was 40%.

Regarding `CCNCc1ccc(-c2cc(C(F)(F)F)nn2-c2ccc(S(C)(=O)=O)cc2)cc1`, the inhibition in vivo at 20 mg/kg stood at 72% in experiment [1], 66% in experiment [2] and 66% in experiment [3].

Turning to `CNCc1ccc(-c2cc(C(F)(F)F)nn2-c2ccc(S(N)(=O)=O)cc2)cc1`, the inhibition in vivo at 20 mg/kg in experiment [1] amounted to 69%; in experiment [2], 57%; in experiment [3] it was 54%.

Take `CCNCc1ccc(-c2cc(C(F)(F)F)nn2-c2ccc(S(N)(=O)=O)cc2)cc1`: the inhibition in vivo at 20 mg/kg in experiment [1] stood at 71%; in experiment [2], 39%; in experiment [3], 53%.

Consider `CCN(Cc1ccc(-c2cc(C(F)(F)F)nn2-c2ccc(S(C)(=O)=O)cc2)cc1)N=O`, for which the inhibition in vivo at 20 mg/kg was determined as 39% in experiment [1], 25% in experiment [2] and 24% in experiment [3].

In the case of `CS(=O)(=O)c1ccc(-n2nc(C(F)(F)F)cc2-c2ccc(CN3CCN(N=O)CC3)cc2)cc1`, the results for the inhibition in vivo at 20 mg/kg in experiment [1], in experiment [2] and in experiment [3] were 43%, 29% and 19%, respectively.

For the compound `CS(=O)(=O)c1ccc(-n2nc(C(F)(F)F)cc2-c2ccc(CN3CCNCC3)cc2)cc1`, the inhibition in vivo at 20 mg/kg turned out to be 73% in experiment [1], 66% in experiment [2] and 67% in experiment [3].
